In US7402548B2, “Benzoxazole compounds, process for producing the same and herbicides” (Kyoyu Agri Co., Ltd., priority 2000, dated 2008):

Experiments:
livid amaranth [1] = assay: Foliar spread test for upland field; type: in vivo, Amaranthus lividus; design: key: 0 = normal development, 5 = all killed (6 ranks vs. untreated); settings: foliar spray, 500 ppm, 3 weeks, glass house 25° C.
Procedure, shortened: (§1)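 Seeds were sown in volcanic ash soil in Wagner pots and grown about 2 weeks in a glass house at an average 25° C. Wettable-powder formulations diluted to 500 ppm in water with 0.5% surfactant were sprayed uniformly over the plants. After 3 further weeks at 25° C, damage was scored 0 (normal) to 5 (all killed) against untreated plants.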

soybean = assay: Soil treatment test for upland field; type: in vivo; design: key: 0 = normal development, 5 = all killed; settings: 500 g/ha, 3 weeks, glass house 25° C.
Procedure, shortened: (§2)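 Pre-emergence: seeds sown in alluvial Ube soil, wettable powder diluted in water with 0.05% surfactant sprayed on soil surface at 500 g/ha. Plants held in glasshouse at 25° C average for 3 weeks. Damage scored 0 (normal) to 5 (all killed) versus untreated.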

corn [2] = assay: Soil treatment test for upland field; type: in vivo; design: key: 0 = normal development, 5 = all killed; settings: 500 g/ha, 3 weeks, glass house 25° C.
Procedure, shortened: as §2

wheat [3] = assay: Soil treatment test for upland field; type: in vivo; design: key: 0 = normal development, 5 = all killed; settings: 500 g/ha, 3 weeks, glass house 25° C.
Procedure, shortened: as §2

Large crabgrass [4] = assay: Foliar spread test for upland field; type: in vivo, Digitaria adscendens; design: key: 0 = normal development, 5 = all killed (6 ranks vs. untreated); settings: foliar spray, 500 ppm, 3 weeks, glass house 25° C.
Procedure, shortened: as §1

common lambsquarters [5] = assay: Foliar spread test for upland field; type: in vivo, Chenopodium album; design: key: 0 = normal development, 5 = all killed (6 ranks vs. untreated); settings: foliar spray, 500 ppm, 3 weeks, glass house 25° C.
Procedure, shortened: as §1

barnyard grass [6] = assay: Herbicidal test for paddy field; type: in vivo, Eschinochloa crusgalli; settings: 500 g/ha, dropwise addition to paddy water at 1.5 leaf stage of barnyard grass; glass house 25° C., 3 weeks; rank 0-5 vs non-treated district
Procedure: (§3) Wagner pots, each having an area of 1/5000 are, were packed with Ube soil (alluvial soil) and planted with seeds or tubers of young rice plant, barnyard grass, bulrush, Cyperus serotinus Rottb., arrowhead and monochoria. Then, the pots were filled with water to a depth of 3 cm.
(§4) Each wettable powder of the desired Compounds (I) shown in Tables 1 to 21, 24, 25, 28 and 29 prepared in accordance with Example 2 was diluted with water containing a surfactant (0.05%) and subjected to dropwise addition treatment by using pipet so that an effective concentration of the compound (I) in each herbicide became 500 g/ha at 1.5 leaf stage of barnyard grass.
(§5) These plants were controlled in a glass house at an average temperature of 25° C. for 3 weeks, and then herbicidal effects thereof were investigated.
(§6) The herbicidal effects are evaluated according to the following 6 ranks as compared with non-treated district. (0: normal development, 1: Less damaged, 2: Slightly damaged, 3: Moderately damaged, 4: Severely damaged, 5: All killed). Incidentally, “-” in the column means not investigated.

wheat [7] = assay: Foliar spread test for upland field; type: in vivo; design: key: 0 = normal development, 5 = all killed (6 ranks vs. untreated); settings: foliar spray, 500 ppm, 3 weeks, glass house 25° C.
Procedure, shortened: as §1

barnyard grass [8] = assay: Soil treatment test for upland field; type: in vivo, Eschinochloa crusgalli; design: key: 0 = normal development, 5 = all killed; settings: 500 g/ha, 3 weeks, glass house 25° C.
Procedure, shortened: as §2

monochoria = assay: Herbicidal test for paddy field; type: in vivo, Monochoria vaginalis; settings: 500 g/ha, dropwise addition to paddy water at 1.5 leaf stage of barnyard grass; glass house 25° C., 3 weeks; rank 0-5 vs non-treated district
Procedure: as §3, §4, §5, §6

annual bluegrass = assay: Soil treatment test for upland field; type: in vivo, Poa annua; design: key: 0 = normal development, 5 = all killed; settings: 500 g/ha, 3 weeks, glass house 25° C.
Procedure, shortened: as §2

livid amaranth [9] = assay: Soil treatment test for upland field; type: in vivo, Amaranthus lividus; design: key: 0 = normal development, 5 = all killed; settings: 500 g/ha, 3 weeks, glass house 25° C.
Procedure, shortened: as §2

common lambsquarters [10] = assay: Soil treatment test for upland field; type: in vivo, Chenopodium album; design: key: 0 = normal development, 5 = all killed; settings: 500 g/ha, 3 weeks, glass house 25° C.
Procedure, shortened: as §2

green foxtail [11] = assay: Foliar spread test for upland field; type: in vivo, Setaria viridis; design: key: 0 = normal development, 5 = all killed (6 ranks vs. untreated); settings: foliar spray, 500 ppm, 3 weeks, glass house 25° C.
Procedure, shortened: as §1

Large crabgrass [12] = assay: Soil treatment test for upland field; type: in vivo, Digitaria adscendens; design: key: 0 = normal development, 5 = all killed; settings: 500 g/ha, 3 weeks, glass house 25° C.
Procedure, shortened: as §2

green foxtail [13] = assay: Soil treatment test for upland field; type: in vivo, Setaria viridis; design: key: 0 = normal development, 5 = all killed; settings: 500 g/ha, 3 weeks, glass house 25° C.
Procedure, shortened: as §2

corn [14] = assay: Foliar spread test for upland field; type: in vivo; design: key: 0 = normal development, 5 = all killed (6 ranks vs. untreated); settings: foliar spray, 500 ppm, 3 weeks, glass house 25° C.
Procedure, shortened: as §1

Structure (SMILES) | Effects Livid amaranth (livid amaranth [1]) | Effects Soybean (soybean) | Effects Corn (corn [2]) | Effects Wheat (wheat [3]) | Effects Large crabgrass (Large crabgrass [4]) | Effects Common lambsquarters (common lambsquarters [5]) | Effects Barnyardgrass (barnyard grass [6]) | Effects Wheat (wheat [7]) | Effects Barnyardgrass (barnyard grass [8]) | Effects Monochoria (monochoria) | Effects Annual bluegrass (annual bluegrass) | Effects Livid amaranth (livid amaranth [9]) | Effects Common lambsquarters (common lambsquarters [10]) | Effects Green foxtail (green foxtail [11]) | Effects Large crabgrass (Large crabgrass [12]) | Effects Green foxtail (green foxtail [13]) | Effects Corn (corn [14])
CCC(Oc1cc(C(F)(F)F)nn1C)c1nc2cc(C#N)c(F)cc2o1 (centres unmarked) [Compound 1-e-10] | 5 | 2 | 1 | 0 | 5 | 5 | 5 | 1 | 4 | 4 | 5 | 5 | 5 | 5 | 5 | 5 | –
CCC(Oc1cc(C(F)(F)F)nn1C)c1nc2cc(C#N)c(Cl)cc2o1 (centres unmarked) [Compound 1-e-11] | 5 | – | 0 | 0 | – | 5 | 4 | 1 | 4 | 4 | 5 | 5 | 5 | – | 5 | 5 | –
CCC(Sc1cc(C(F)(F)F)nn1C)c1nc2cc(Cl)ccc2o1 (centres unmarked) [Compound 1-e-12] | – | 0 | 0 | 0 | – | – | – | – | 3 | 5 | 4 | 4 | 3 | – | 5 | 2 | –
CCC(Oc1cc(C(F)(F)F)no1)c1nc2cc(C#N)c(F)cc2o1 (centres unmarked) [Compound 1-e-28] | 5 | 1 | 0 | 0 | 4 | 5 | 5 | 2 | 4 | 5 | 5 | 5 | 5 | 4 | 5 | 5 | 2
